Reference: ChEMBL document CHEMBL5113392, “Novel hybrid pyrrolidinedione-thiazolidinones as potential anticancer agents: Synthesis and biological evaluation” (Eur J Med Chem, 2022)
The source made the active and inactive calls. No cut-off for these calls is given here.

How the values were obtained:
HCC 2998 = experiment: Anticancer activity against human HCC 2998 cells assessed as inhibition of cell growth at 10 uM incubated for 48 hrs by SRB assay; assay type: functional; conditions: HCC 2998, 48 h, values are per cent of control
HL-60 [1] = experiment: Anticancer activity against human HL-60 cells assessed as growth inhibition incubated for 48 hrs by SRB assay; assay type: functional
MOLT-4 = experiment: Anticancer activity against human MOLT-4 cells assessed as growth inhibition incubated for 48 hrs by SRB assay; assay type: functional
RPMI-8226 [2] = experiment: Anticancer activity against human RPMI-8226 cells assessed as growth inhibition incubated for 48 hrs by SRB assay; assay type: functional
NCI-H322M [3] = experiment: Anticancer activity against human NCI-H322M cells assessed as growth inhibition incubated for 48 hrs by SRB assay; assay type: functional
COLO 205 = experiment: Anticancer activity against human COLO 205 cells assessed as growth inhibition incubated for 48 hrs by SRB assay; assay type: functional
HT-29 [4] = experiment: Anticancer activity against human HT-29 cells assessed as growth inhibition incubated for 48 hrs by SRB assay; assay type: functional
SF-295 = experiment: Anticancer activity against human SF-295 cells assessed as growth inhibition incubated for 48 hrs by SRB assay; assay type: functional
Malme-3M [5] = experiment: Anticancer activity against human Malme-3M cells assessed as growth inhibition incubated for 48 hrs by SRB assay; assay type: functional
M14 [6] = experiment: Anticancer activity against human M14 cells assessed as growth inhibition incubated for 48 hrs by SRB assay; assay type: functional
SK-MEL-5 = experiment: Anticancer activity against human SK-MEL-5 cells assessed as growth inhibition incubated for 48 hrs by SRB assay; assay type: functional
CAKI-1 = experiment: Anticancer activity against human CAKI-1 cells assessed as growth inhibition incubated for 48 hrs by SRB assay; assay type: functional
UO-31 [7] = experiment: Anticancer activity against human UO-31 cells assessed as growth inhibition incubated for 48 hrs by SRB assay; assay type: functional
PC-3 = experiment: Anticancer activity against human PC-3 cells assessed as growth inhibition incubated for 48 hrs by SRB assay; assay type: functional
SR = experiment: Anticancer activity against human SR cells assessed as total growth inhibition incubated for 48 hrs by SRB assay; assay type: functional
A549 [8] = experiment: Anticancer activity against human A549 cells assessed as total growth inhibition incubated for 48 hrs by SRB assay; assay type: functional
HOP-92 [9] = experiment: Anticancer activity against human HOP-92 cells assessed as total growth inhibition incubated for 48 hrs by SRB assay; assay type: functional
NCI-H322M [10] = experiment: Anticancer activity against human NCI-H322M cells assessed as total growth inhibition incubated for 48 hrs by SRB assay; assay type: functional
HCT-116 [11] = experiment: Anticancer activity against human HCT-116 cells assessed as total growth inhibition incubated for 48 hrs by SRB assay; assay type: functional
HCT-15 = experiment: Anticancer activity against human HCT-15 cells assessed as total growth inhibition incubated for 48 hrs by SRB assay; assay type: functional
SF-268 = experiment: Anticancer activity against human SF-268 cells assessed as total growth inhibition incubated for 48 hrs by SRB assay; assay type: functional
M14 [12] = experiment: Anticancer activity against human M14 cells assessed as total growth inhibition incubated for 48 hrs by SRB assay; assay type: functional
SK-MEL-2 [13] = experiment: Anticancer activity against human SK-MEL-2 cells assessed as total growth inhibition incubated for 48 hrs by SRB assay; assay type: functional
UACC-62 = experiment: Anticancer activity against human UACC-62 cells assessed as total growth inhibition incubated for 48 hrs by SRB assay; assay type: functional
786-0 = experiment: Anticancer activity against human 786-0 cells assessed as total growth inhibition incubated for 48 hrs by SRB assay; assay type: functional
TK-10 = experiment: Anticancer activity against human TK-10 cells assessed as total growth inhibition incubated for 48 hrs by SRB assay; assay type: functional
MDA-MB-468 = experiment: Anticancer activity against human MDA-MB-468 cells assessed as total growth inhibition incubated for 48 hrs by SRB assay; assay type: functional
CCRF-CEM = experiment: Anticancer activity against human CCRF-CEM cells assessed as lethality incubated for 48 hrs by SRB assay; assay type: functional; conditions: read-out: LC50 (the source's name)
HL-60 [14] = experiment: Anticancer activity against human HL-60 cells assessed as lethality incubated for 48 hrs by SRB assay; assay type: functional; conditions: read-out: LC50 (the source's name)
RPMI-8226 [15] = experiment: Anticancer activity against human RPMI-8226 cells assessed as lethality incubated for 48 hrs by SRB assay; assay type: functional; conditions: read-out: LC50 (the source's name)
HOP-92 [16] = experiment: Anticancer activity against human HOP-92 cells assessed as lethality incubated for 48 hrs by SRB assay; assay type: functional; conditions: read-out: LC50 (the source's name)
NCI-H23 = experiment: Anticancer activity against human NCI-H23 cells assessed as lethality incubated for 48 hrs by SRB assay; assay type: functional; conditions: read-out: LC50 (the source's name)
NCI-H322M [17] = experiment: Anticancer activity against human NCI-H322M cells assessed as lethality incubated for 48 hrs by SRB assay; assay type: functional; conditions: read-out: LC50 (the source's name)
HT-29 [18] = experiment: Anticancer activity against human HT-29 cells assessed as lethality incubated for 48 hrs by SRB assay; assay type: functional; conditions: read-out: LC50 (the source's name)
SF-539 = experiment: Anticancer activity against human SF-539 cells assessed as lethality incubated for 48 hrs by SRB assay; assay type: functional; conditions: read-out: LC50 (the source's name)
Malme-3M [19] = experiment: Anticancer activity against human Malme-3M cells assessed as lethality incubated for 48 hrs by SRB assay; assay type: functional; conditions: read-out: LC50 (the source's name)
SK-MEL-2 [20] = experiment: Anticancer activity against human SK-MEL-2 cells assessed as lethality incubated for 48 hrs by SRB assay; assay type: functional; conditions: read-out: LC50 (the source's name)
SK-MEL-28 = experiment: Anticancer activity against human SK-MEL-28 cells assessed as lethality incubated for 48 hrs by SRB assay; assay type: functional; conditions: read-out: LC50 (the source's name)
SN12C = experiment: Anticancer activity against human SN12C cells assessed as lethality incubated for 48 hrs by SRB assay; assay type: functional; conditions: read-out: LC50 (the source's name)
UO-31 [21] = experiment: Anticancer activity against human UO-31 cells assessed as lethality incubated for 48 hrs by SRB assay; assay type: functional; conditions: read-out: LC50 (the source's name)
T47D = experiment: Anticancer activity against human T47D cells assessed as lethality incubated for 48 hrs by SRB assay; assay type: functional; conditions: read-out: LC50 (the source's name)
A549 [22] = experiment: Anticancer activity against human A549 cells assessed as cell growth inhibition incubated for 72 hrs by MTT assay; assay type: functional
MCF7 = experiment: Anticancer activity against human MCF7 cells assessed as cell growth inhibition incubated for 72 hrs by MTT assay; assay type: functional
MDA-MB-231 = experiment: Anticancer activity against human MDA-MB-231 cells assessed as cell growth inhibition incubated for 72 hrs by MTT assay; assay type: functional
HCT-116 [23] = experiment: Anticancer activity against human HCT-116 cells assessed as cell growth inhibition incubated for 72 hrs by MTT assay; assay type: functional
[24] = Selectivity index, ratio of GI50 for human HaCaT cells to GI50 for human A549 cells; assay type: toxicity; conditions: HaCaT cells versus A549 cells, read-out: RatioGI50
Jurkat [25] = experiment: Induction of morphological changes in human Jurkat cells assessed as chromatin topology incubated for 24 hrs by Hoechst 33258 and propidium iodide staining based fluorescence microscopy; assay type: functional, cell-based
Jurkat [26] = experiment: Induction of morphological changes in human Jurkat cells assessed as chromatin fragmentation incubated for 24 hrs by Hoechst 33258 and propidium iodide staining based fluorescence microscopy; assay type: functional, cell-based
Jurkat [27] = experiment: Induction of morphological changes in human Jurkat cells assessed as plasma membrane blebbing incubated for 24 hrs by Hoechst 33258 and propidium iodide staining based fluorescence microscopy; assay type: functional, cell-based
Salmon testes DNA = experiment: Displacement of methyl green from salmon sperm DNA at 1 uM measured after 2 hrs by fluorescence plate reader method relative to control; assay type: nucleic-acid assay; conditions: Salmo salar

## O=C1CC(N2C(=O)/C(=C/C(Cl)=C/c3ccc([N+](=O)[O-])cc3)SC2=S)C(=O)N1c1ccc(Cl)cc1 (stereo not given)
HCC 2998
  growth, % of control at 10 µM: -22.9%
HL-60 [1]
  GI50: 1.45 µM
MOLT-4
  GI50: 0.596 µM
RPMI-8226 [2]
  GI50: 0.303 µM
NCI-H322M [3]
  GI50: 3 µM
COLO 205
  GI50: 1.4 µM
HT-29 [4]
  GI50: 0.632 µM
SF-295
  GI50: 1.4 µM
Malme-3M [5]
  GI50: 3.09 µM
M14 [6]
  GI50: 2.11 µM
SK-MEL-5
  GI50: 1.95 µM
CAKI-1
  GI50: 1.13 µM
UO-31 [7]
  GI50: 1.07 µM
PC-3
  GI50: 1.34 µM
SR
  TGI: 14.2 µM
A549 [8]
  TGI: > 100 µM
HOP-92 [9]
  TGI: 6.79 µM
NCI-H322M [10]
  TGI: > 100 µM
HCT-116 [11]
  TGI: 3.04 µM
HCT-15
  TGI: 8.2 µM
SF-268
  TGI: > 100 µM
M14 [12]
  TGI: 5.06 µM
SK-MEL-2 [13]
  TGI: 32.1 µM
UACC-62
  TGI: 4.3 µM
786-0
  TGI: 3.33 µM
TK-10
  TGI: 8.63 µM
MDA-MB-468
  TGI: 3.1 µM
CCRF-CEM
  CC50: > 100 µM
HL-60 [14]
  CC50: > 100 µM
RPMI-8226 [15]
  CC50: 71 µM
HOP-92 [16]
  CC50: > 100 µM
NCI-H23
  CC50: 15 µM
NCI-H322M [17]
  CC50: > 100 µM
HT-29 [18]
  CC50: > 100 µM
SF-539
  CC50: > 100 µM
Malme-3M [19]
  CC50: > 100 µM
SK-MEL-2 [20]
  CC50: > 100 µM
SK-MEL-28
  CC50: 9.41 µM
SN12C
  CC50: > 100 µM
UO-31 [21]
  CC50: > 100 µM
T47D
  CC50: > 100 µM
A549 [22]
  GI50: 63.9 µM
MCF7
  GI50: 7.95 µM
MDA-MB-231
  GI50: 6.45 µM
HCT-116 [23]
  GI50: 9.18 µM
[24]
  selectivity ratio: 1.56
Jurkat [25]
  Activity: Active
Jurkat [26]
  Activity: Active
Jurkat [27]
  Activity: Active
Salmon testes DNA
  Activity: 4.3%
